# Test results: US6653338B2 (Applied Research Systems ARS Holding N.A., priority 1998, dated 2003)
# Columns and labels:
# [1] = target: T1, recombinant FSH receptor stably transfected and expressed in Chinese Hamster Ovary cells (Homo sapiens, UniProt P23945); test: FSH assay: CHO luciferase FSHR (CRE-luciferase reporter, LDR curves); format: cell-based; conditions: FIG. 6, from the graph; duplicate samples; luciferase luminescence in CHO FSHR cells
# T1 construct: expressed in transfected cells; host or cells: Chinese Hamster Ovary (CHO) cells, stably transfected, with CRE-luciferase reporter
# T1 sequence (P23945 18-695): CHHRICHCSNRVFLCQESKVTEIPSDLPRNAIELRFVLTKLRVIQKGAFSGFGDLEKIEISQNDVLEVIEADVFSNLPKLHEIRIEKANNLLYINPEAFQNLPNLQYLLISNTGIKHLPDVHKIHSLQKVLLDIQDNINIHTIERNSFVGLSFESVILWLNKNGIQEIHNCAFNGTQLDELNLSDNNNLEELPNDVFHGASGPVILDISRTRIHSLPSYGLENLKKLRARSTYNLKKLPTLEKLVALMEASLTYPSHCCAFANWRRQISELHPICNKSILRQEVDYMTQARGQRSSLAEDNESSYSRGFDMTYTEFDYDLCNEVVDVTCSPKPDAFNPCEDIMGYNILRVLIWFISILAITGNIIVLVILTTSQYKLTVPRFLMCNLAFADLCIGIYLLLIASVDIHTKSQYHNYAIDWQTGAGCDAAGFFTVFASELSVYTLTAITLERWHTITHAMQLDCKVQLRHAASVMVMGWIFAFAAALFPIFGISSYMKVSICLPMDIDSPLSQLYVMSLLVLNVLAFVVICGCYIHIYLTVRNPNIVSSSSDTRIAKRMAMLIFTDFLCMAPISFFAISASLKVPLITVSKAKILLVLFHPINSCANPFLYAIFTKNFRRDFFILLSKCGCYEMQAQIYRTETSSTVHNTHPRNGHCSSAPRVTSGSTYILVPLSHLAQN
# Excerpt: Compounds were screened for agonist activity at the FSH receptor using the recombinant FSH receptor stably transfected and expressed in Chinese Hamster Ovary cells (CHO cells) essentially as described in the work by Kelton, et al. (Molecular and Cellular Endocrinology, 1992, 89, 141-151). […] An agonist at the FSH receptor increases cAMP in the cell, which results in activation of CREB (cAMP response element binding protein). This molecule interacts with the CRE element upstream of the gene and results in increased transcription of the genes downstream of the element. The substrate for luciferase (Packard Instrument Company, Meriden, Conn., U.S.A.) was added to the cells after appropriate incubation with the compounds of the invention or FSH (used as a positive control). The amount of luciferase expressed was measured by quantitating the luminescence produced by the enzyme using a TopCount scintillation/luminescence counter running in single photon counting mode. A compound that acts as an agonist at the receptor should produce light from the treated cells in proportion to its concentration within the incubation. Luminescence should be saturable at high concentrations of the compound.
# The compounds of the invention, in deepwell plates (Master plates) were loaded on the robotic deck along with the appropriate number of assay plates and daughter plates. A 10 μl aliquot from each master plate was transferred to the corresponding daughter plate and 90 μl of DME/F12 was added and mixed within each well. 20 μl was then removed from the daughter plate and dispensed into the assay plate. […] 100 μl of Luclite (prepared as described by the manufacturer) was added to each well and the plate was shaken gently for 40 s prior to placement in the Topcount plate reader. After allowing 3.5 min for the plate to dark-adapt within the machine, the amount of luminescence generated was quantitated using Single Photon Counting mode. […]
# [2] = system: primary rat granulosa cells; test: primary rat granulosa cell bioassay (estradiol production by RIA); format: cell-based; conditions: FIG. 7; for estradiol production versus dose: concentrations between 200 nM and 5 μM, decrease in production above this concentration; for EC50: Rattus norvegicus, estradiol in cell supernatants by RIA, read-out: EC50 of stimulated estradiol production
# Experimental: In this in vitro assay, conversion of androstendione to estrogen by granulosa cells in the presence of FSH was measured for compounds XVI and XVII. For comparison, FSH was also tested in the assay.
# Cells were plated at 5000, 8000, 10,000 and 20,000 cells/ well/ 200 μl of GAB medium on poly-D-lysine-coated 96-well tissue culture plates. Plates were incubated at 37° C. in a 5% CO2/95% air incubator for 3 days. Cultures were washed prior to stimulation with FSH or LH. 50 μl of 4 X concentrations of rhFSH, rhLH or forskolin was added to the cultures. To define the range of the dose response curve the rhFSH was diluted so that the final concentration on the cells was between 10^−7 to 10^−15 M with three doses per log at 1, 2 and 5. Forskolin was diluted so that the final concentration on the cells was 1 μM. Cells were incubated @ 37° C. in 5% CO2. Three days later, cell supernatants were collected and diluted 1:100 in GAB medium for measurement of estradiol by RIA. The RIA was performed according to manufacturer's directions except that an estradiol standard was prepared in absolute ethanol at 100 ng/mL and then further diluted in GAB medium, instead of kit buffer. The concentration of hormone was plotted on the X-axis against the amount of estradiol produced by the cells on the Y-axis using Origin graphics software.
# Results of the assay using media only are also shown.
EC50 [1] [µM],EC50 [2] [µM],SMILES,estradiol production versus dose [2]
1.12,,"CCCCCc1ccc(C(=O)N2CC(O)CC2C(=O)Nc2ccc3c(c2)c2ccccc2n3CC)c(=O)o1 (stereo not shown) [compound XIX, 1-[(2-Oxo-6-pentyl-2H-pyran)-3-carbonyl]-4-hydroxypyrrolidine2-carboxylic acid-3-(9-ethylcarbazolyl)amide]",
0.0388,1.4,"CCCCCc1ccc(C(=O)N2CCCC2C(=O)Nc2ccc3c(c2)c2ccccc2n3CC)c(=O)o1 (stereo not shown) [compound XVI, 1-[(2-Oxo-6-pentyl-2H-pyran)-3-carbonyl]pyrrolidine-2-carboxylic acid-3-(9-ethylcarbazolyl)amide]",increasing estradiol production with increasing dose
0.0039,1.2,"CCCCCc1ccc(C(=O)N2CCCCC2C(=O)Nc2ccc3c(c2)c2ccccc2n3CC)c(=O)o1 (stereo not shown) [compound XVII, 1-[(2-Oxo-6-pentyl-2H-pyran)-3-carbonyl]piperidine-2-carboxylic acid-3-(9-ethylcarbazolyl)amide]",increasing estradiol production with increasing dose
